Active and inactive are the calls of the source. The rule behind the calls is not given here.
Experiments:
[1] = biological target: T1, Cannabinoid receptor (Mus musculus) (UniProt P47746+P47936); test: Agonist activity at cannabinoid receptor in ICR mouse vas deferens assessed as inhibition of electrically induced contractions at 2.7 x 10^-6 M after 10 mins in presence of CB1 antagonist AM251 and CB2 antagonist AM630 relative to control; type: protein assay
[2] = biological target: T1, Cannabinoid receptor (Mus musculus); test: Agonist activity at cannabinoid receptor in ICR mouse vas deferens assessed as inhibition of electrically induced contractions at 10^-7 M after 10 mins relative to control; type: protein assay
Acetylcholinesterase [3] = biological target: T2, Acetylcholinesterase (Homo sapiens, UniProt P22303); test: Inhibition of human erythrocyte AChE at 10 uM using acetylthiocholine as substrate by Ellman's assay
T2 sequence (P22303 whole entry): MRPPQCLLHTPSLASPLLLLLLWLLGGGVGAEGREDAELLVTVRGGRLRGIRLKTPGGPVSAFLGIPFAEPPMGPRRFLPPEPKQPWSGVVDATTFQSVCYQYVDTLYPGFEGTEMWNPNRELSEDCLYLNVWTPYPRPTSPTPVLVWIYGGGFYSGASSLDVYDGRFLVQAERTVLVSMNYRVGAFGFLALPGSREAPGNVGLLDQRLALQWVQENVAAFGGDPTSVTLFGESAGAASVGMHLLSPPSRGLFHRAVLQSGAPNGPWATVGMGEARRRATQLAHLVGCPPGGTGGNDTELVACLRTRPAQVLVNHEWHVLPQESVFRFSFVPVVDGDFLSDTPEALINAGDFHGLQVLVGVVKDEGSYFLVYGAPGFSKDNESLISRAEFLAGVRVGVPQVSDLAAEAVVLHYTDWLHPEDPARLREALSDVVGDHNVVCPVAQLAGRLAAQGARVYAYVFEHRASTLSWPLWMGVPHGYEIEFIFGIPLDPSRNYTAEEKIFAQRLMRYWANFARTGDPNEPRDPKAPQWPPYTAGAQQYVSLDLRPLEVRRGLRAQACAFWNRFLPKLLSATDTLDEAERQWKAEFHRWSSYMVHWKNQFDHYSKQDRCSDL

[4] = biological target: T1, Cannabinoid receptor (Mus musculus); test: Agonist activity at cannabinoid receptor in ICR mouse vas deferens assessed as inhibition of electrically induced contractions at 3 x 10^-7 M after 10 mins in presence of CB1 antagonist AM251 and CB2 antagonist AM630 relative to control; type: protein assay
SH-SY5Y [5] = test: Neuroprotective activity against amyloid beta-induced neurodegeneration in human SH-SY5Y cells at 10 uM preincubated for 1 hr followed by amyloid beta addition and measured after 24 hrs by MTT assay; type: functional, cell-based
[6] = biological target: T1, Cannabinoid receptor (Mus musculus); test: Agonist activity at cannabinoid receptor in ICR mouse vas deferens assessed as inhibition of electrically induced contractions at 1.82 x 10^-5 M after 10 mins in presence of CB1 antagonist AM251 and CB2 antagonist AM630 relative to control; type: protein assay
[7] = biological target: T1, Cannabinoid receptor (Mus musculus); test: Agonist activity at cannabinoid receptor in ICR mouse vas deferens assessed as inhibition of electrically induced contractions at 9 x 10^-7 M after 10 mins relative to control; type: protein assay
Homo sapiens [8] = species on record: Homo sapiens; test: Antiproliferative activity against Alzheimer's patient derived lymphoblast cells at 5 uM after 72 hrs by MTT assay; type: functional
[9] = biological target: T1, Cannabinoid receptor (Mus musculus); test: Agonist activity at cannabinoid receptor in ICR mouse vas deferens assessed as inhibition of electrically induced contractions at 2.7 x 10^-6 M after 10 mins relative to control; type: protein assay
Acetylcholinesterase [10] = biological target: T2, Acetylcholinesterase; test: Inhibition of human erythrocyte AChE using acetylthiocholine as substrate by Ellman's assay
Homo sapiens [11] = species on record: Homo sapiens; test: Antiproliferative activity against Alzheimer's patient derived lymphoblast cells at 5 uM in presence of CB2 antagonist AM630 after 72 hrs by MTT assay; type: functional
Cholinesterase [12] = biological target: T3, Cholinesterase (Homo sapiens, UniProt P06276); test: Non-competitive inhibition of human serum BChE using butyrylthiocholine as substrate by Lineweaver-Burk plot analysis
T3 sequence (P06276 whole entry): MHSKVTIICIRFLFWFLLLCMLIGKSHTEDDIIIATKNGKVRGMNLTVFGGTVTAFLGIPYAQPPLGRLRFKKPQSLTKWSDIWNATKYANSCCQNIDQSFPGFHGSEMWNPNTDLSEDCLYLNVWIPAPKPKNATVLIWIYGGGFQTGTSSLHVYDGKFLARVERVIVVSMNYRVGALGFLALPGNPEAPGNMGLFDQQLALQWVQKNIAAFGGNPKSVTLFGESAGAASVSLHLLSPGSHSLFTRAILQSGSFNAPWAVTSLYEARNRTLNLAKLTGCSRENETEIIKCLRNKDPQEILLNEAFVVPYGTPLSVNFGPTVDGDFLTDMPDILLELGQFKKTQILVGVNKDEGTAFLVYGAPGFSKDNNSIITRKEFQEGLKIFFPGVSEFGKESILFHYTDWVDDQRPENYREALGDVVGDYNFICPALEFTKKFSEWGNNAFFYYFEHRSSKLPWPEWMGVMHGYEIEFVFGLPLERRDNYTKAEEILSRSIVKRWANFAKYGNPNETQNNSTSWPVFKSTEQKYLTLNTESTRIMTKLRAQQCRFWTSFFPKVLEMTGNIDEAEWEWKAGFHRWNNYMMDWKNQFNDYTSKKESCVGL

[13] = biological target: T1, Cannabinoid receptor (Mus musculus); test: Agonist activity at cannabinoid receptor in ICR mouse vas deferens assessed as inhibition of electrically induced contractions at 8.1 x 10^-6 M after 10 mins in presence of CB1 antagonist AM251 and CB2 antagonist AM630 relative to control; type: protein assay
SH-SY5Y [14] = test: Neuroprotective activity against amyloid beta-induced neurodegeneration in human SH-SY5Y cells at 20 uM preincubated for 1 hr followed by amyloid beta addition and measured after 24 hrs by MTT assay; type: functional, cell-based
[15] = biological target: T1, Cannabinoid receptor (Mus musculus); test: Agonist activity at cannabinoid receptor in ICR mouse vas deferens assessed as inhibition of electrically induced contractions at 1.82 x 10^-5 M after 10 mins relative to control; type: protein assay
[16] = biological target: T1, Cannabinoid receptor (Mus musculus); test: Agonist activity at cannabinoid receptor in ICR mouse vas deferens assessed as inhibition of electrically induced contractions at 10^-7 M after 10 mins in presence of CB1 antagonist AM251 and CB2 antagonist AM630 relative to control; type: protein assay
[17] = Antiproliferative activity against normal human derived lymphoblast cells at 5 uM after 72 hrs by MTT assay
[18] = biological target: Beta-secretase 1 (Homo sapiens) (UniProt P56817); test: Inhibition of human BACE1 at 10 uM incubated for 60 mins using rhodamine-EVNLDAEFK-quencher substrate by FRET assay
Sequence of Beta-secretase 1 (Homo sapiens) (P56817 whole entry): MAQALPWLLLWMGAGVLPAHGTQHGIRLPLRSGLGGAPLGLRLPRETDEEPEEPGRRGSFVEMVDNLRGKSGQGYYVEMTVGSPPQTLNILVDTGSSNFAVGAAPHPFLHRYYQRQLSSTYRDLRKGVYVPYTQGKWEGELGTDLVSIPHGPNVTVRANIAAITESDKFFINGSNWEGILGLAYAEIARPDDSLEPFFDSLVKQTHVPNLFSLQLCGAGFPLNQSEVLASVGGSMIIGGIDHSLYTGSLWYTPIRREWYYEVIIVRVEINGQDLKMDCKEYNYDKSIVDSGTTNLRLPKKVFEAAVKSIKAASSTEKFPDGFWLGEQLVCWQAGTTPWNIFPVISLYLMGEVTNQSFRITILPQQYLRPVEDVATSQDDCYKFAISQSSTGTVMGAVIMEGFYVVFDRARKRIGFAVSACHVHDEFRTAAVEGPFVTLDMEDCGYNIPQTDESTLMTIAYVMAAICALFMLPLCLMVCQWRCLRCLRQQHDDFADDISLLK

[19] = biological target: T1, Cannabinoid receptor (Mus musculus); test: Agonist activity at cannabinoid receptor in ICR mouse vas deferens assessed as inhibition of electrically induced contractions at 9 x 10^-7 M after 10 mins in presence of CB1 antagonist AM251 and CB2 antagonist AM630 relative to control; type: protein assay
[20] = biological target: T1, Cannabinoid receptor (Mus musculus); test: Agonist activity at cannabinoid receptor in ICR mouse vas deferens assessed as inhibition of electrically induced contractions at 8.1 x 10^-6 M after 10 mins relative to control; type: protein assay
[21] = biological target: T1, Cannabinoid receptor (Mus musculus); test: Agonist activity at cannabinoid receptor in ICR mouse vas deferens assessed as inhibition of electrically induced contractions at 3 x 10^-7 M after 10 mins relative to control; type: protein assay
[22] = biological target: T1, Cannabinoid receptor (Mus musculus); test: Agonist activity at cannabinoid receptor in ICR mouse vas deferens assessed as inhibition of electrically induced contractions at 9 x 10^-7 M after 10 mins in presence of CB1 antagonist AM251 relative to control; type: protein assay
SH-SY5Y [23] = test: Neuroprotective activity against amyloid beta-induced neurodegeneration in human SH-SY5Y cells at 10 uM preincubated for 1 hr followed by amyloid beta addition and measured after 24 hrs CB2 antagonist AM630 by MTT assay; type: functional, cell-based
[24] = biological target: T1, Cannabinoid receptor (Mus musculus); test: Agonist activity at cannabinoid receptor in ICR mouse vas deferens assessed as inhibition of electrically induced contractions at 8.1 x 10^-6 M after 10 mins in presence of CB1 antagonist AM251 relative to control; type: protein assay
[25] = biological target: T1, Cannabinoid receptor (Mus musculus); test: Agonist activity at cannabinoid receptor in ICR mouse vas deferens assessed as inhibition of electrically induced contractions at 2.7 x 10^-6 M after 10 mins in presence of CB1 antagonist AM251 relative to control; type: protein assay
[26] = biological target: T1, Cannabinoid receptor (Mus musculus); test: Agonist activity at cannabinoid receptor in ICR mouse vas deferens assessed as inhibition of electrically induced contractions at 3 x 10^-7 M after 10 mins in presence of CB1 antagonist AM251 relative to control; type: protein assay
[27] = Antioxidant activity assessed as trolox equivalent of APPH-induced radical scavenging activity by ORAC-FL assay; type: functional
[28] = biological target: T1, Cannabinoid receptor (Mus musculus); test: Agonist activity at cannabinoid receptor in ICR mouse vas deferens assessed as inhibition of electrically induced contractions at 1.82 x 10^-5 M after 10 mins in presence of CB1 antagonist AM251 relative to control; type: protein assay
Cholinesterase [29] = biological target: T3, Cholinesterase; test: Inhibition of human serum BChE using butyrylthiocholine as substrate by Ellman's assay
[30] = biological target: T1, Cannabinoid receptor (Mus musculus); test: Agonist activity at cannabinoid receptor in ICR mouse vas deferens assessed as inhibition of electrically induced contractions at 8.1 x 10^-6 M after 10 mins in presence of CB2 antagonist AM630 relative to control; type: protein assay
[31] = biological target: T1, Cannabinoid receptor (Mus musculus); test: Agonist activity at cannabinoid receptor in ICR mouse vas deferens assessed as inhibition of electrically induced contractions at 10^-7 M after 10 mins in presence of CB1 antagonist AM251 relative to control; type: protein assay
[32] = biological target: T1, Cannabinoid receptor (Mus musculus); test: Agonist activity at cannabinoid receptor in ICR mouse vas deferens assessed as inhibition of electrically induced contractions at 1.82 x 10^-5 M after 10 mins in presence of CB2 antagonist AM630 relative to control; type: protein assay

T1 sequence (P47746 whole entry, looked up): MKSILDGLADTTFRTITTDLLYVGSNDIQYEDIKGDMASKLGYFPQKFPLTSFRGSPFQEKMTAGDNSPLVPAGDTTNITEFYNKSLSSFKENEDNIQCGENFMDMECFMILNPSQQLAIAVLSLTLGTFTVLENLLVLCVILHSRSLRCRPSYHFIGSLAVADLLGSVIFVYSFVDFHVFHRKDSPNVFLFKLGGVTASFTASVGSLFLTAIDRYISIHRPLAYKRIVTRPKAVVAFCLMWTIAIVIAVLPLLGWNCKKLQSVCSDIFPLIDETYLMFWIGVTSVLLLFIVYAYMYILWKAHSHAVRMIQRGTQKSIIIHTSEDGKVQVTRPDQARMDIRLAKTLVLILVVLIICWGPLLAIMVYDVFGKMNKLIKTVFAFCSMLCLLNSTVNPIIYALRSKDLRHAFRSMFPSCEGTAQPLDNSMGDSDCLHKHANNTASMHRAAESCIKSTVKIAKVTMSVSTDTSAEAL
T1 sequence (P47936 whole entry, looked up): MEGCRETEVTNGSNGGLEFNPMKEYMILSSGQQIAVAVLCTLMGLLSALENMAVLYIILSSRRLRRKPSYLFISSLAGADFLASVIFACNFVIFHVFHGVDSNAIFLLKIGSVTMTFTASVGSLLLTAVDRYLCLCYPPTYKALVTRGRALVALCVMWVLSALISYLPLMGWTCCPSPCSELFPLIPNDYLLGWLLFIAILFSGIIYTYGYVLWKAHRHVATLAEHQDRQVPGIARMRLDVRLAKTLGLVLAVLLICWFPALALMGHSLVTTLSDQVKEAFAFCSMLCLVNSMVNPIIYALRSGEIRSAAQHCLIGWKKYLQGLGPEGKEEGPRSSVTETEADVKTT

SMILES | inhibition [2] [%] | Activity (SH-SY5Y [5]) | inhibition [7] [%] | Activity (Homo sapiens [8]) | inhibition [9] [%] | IC50 (Acetylcholinesterase [10]) [µM] | Activity (Homo sapiens [11]) | inhibition [15] [%] | Activity [17] | inhibition [18] [%] | inhibition [20] [%] | inhibition [21] [%] | also measured
COc1ccc(COc2nn(CCN(C(C)C)C(C)C)c3ccccc23)cc1 | 7.5 | Active | 18.6 | Active | 43.1 | > 10 | inactive | 86.4 | Non-Toxic | 9 | 74.7 | 8.5 | inhibition [1]: 20.3%; inhibition (Acetylcholinesterase [3]): 24%; inhibition [4]: 8.2%; inhibition [6]: 84%; inhibition (Cholinesterase [12]): Active; inhibition [13]: 60%; Activity (SH-SY5Y [14]): Active; inhibition [16]: 1.3%; inhibition [19]: 12%
Cc1cc(C)c(C(=O)n2nc(OCCN3CCCCC3)c3ccccc32)c(C)c1 | 2.6 | Active | 6.5 | Active | 14 | 11.6 | inactive | 56.8 | Non-Toxic | 12 | 30.7 | 3.6 | inhibition [22]: 7.6%; Activity (SH-SY5Y [23]): inactive; inhibition [24]: 19.8%; inhibition [25]: 8.7%; inhibition [26]: 1.4%; Activity [27]: inactive; inhibition [28]: 40.7%; IC50 (Cholinesterase [29]): 0.29 µM; inhibition [30]: -4.7%; inhibition [31]: -0.4%; inhibition [32]: 1.3%

Reference: ChEMBL document CHEMBL4400519, “Indazolylketones as new multitarget cannabinoid drugs” (Eur J Med Chem, 2019)
